In patent publication US6846803B1, “Antagonists specific for the corticotropin-releasing factor receptor type 2 (CRFR2)” (priority 1998, dated 2005):
Marks after values point to notes of the source that are not given here.

What was measured:
mCRFR2β [1] = molecular target: T1, mCRFR2β (Mus musculus, UniProt Q60748); experiment: cAMP stimulation / inhibition of Svg-stimulated cAMP production in HEK-mCRFR2β cells; format: cell-based; conditions: Table 2; 10 nM antagonist, cAMP production stimulated by 1 nM Svg; Svg alone = 1.00 (lower = stronger inhibition)
T1 construct: expressed in transfected cells; host or cells: HEK 293 cells, stably transfected (HEK-mCRFR2β); membrane homogenates
Method: (§1) HEK-rCRFR1 cells or HEK-mCRFR2β cells were incubated with different CRF agonists in the presence or absence of 1 μM or 10 nM antagonist, or CRF antagonist (c=1 μM) alone. After removal of the medium, cells were lyzed with aqueous 6% trichloroacetic acid (5 min, 100° C.) (Rühmann, A., A. K. E. Köpke, F. M. Dautzenberg, and J. Spiess, Proc. Natl. Acad. Sci. USA 93: 10609-10613, 1996). The cell lysates were stored at −70° C. until assayed with a RIA kit (Amersham, Little Chalfont). […] Statistical significance was determined across groups with ANOVA, and significant differences between groups were determined by post hoc comparison using the Dunn test.
(§2) Intrinsic activities were measured at peptide concentrations generating maximal formation of cAMP in HEK-rCRFR1 or HEK-mCRFR2β cells.

mCRFR2β [2] = molecular target: T1, mCRFR2β; experiment: Displacement of [^125I-Tyr^0]Svg from membranes of HEK-mCRFR2β cells; format: binding; conditions: Table 1; Kd(rCRFR1)(peptide)/Kd(rCRFR1)(astressin) × Kd(mCRFR2β)(astressin)/Kd(mCRFR2β)(peptide)
Method: Binding assays were performed in 96-well MultiScreen plates (Millipore, Eschborn, Germany) with GF/B filters (pore size 1.0 μm). […] After incubation (60 min, 23° C.), membrane suspension was aspirated through the plate, followed by two washes with assay buffer (0.2 ml, 23°). Radioactivity of the punched filters was measured with a 1470 WIZARD automatic gamma counter (Berthold, Hannover). […] Statistical analysis was performed with ANOVA, and significant differences between groups were determined by post hoc comparison using the Dunn test.
Membrane homogenates of human embryonic kidney (HEK) 293 cells stably transfected with cDNA coding for rat CRF receptor, type 1 (rCRFR1) or mouse CRF receptor, type 2β (mCRFR2β) were prepared according to standard protocols (see, e.g., Sambrook et al., Molecular Cloning: A Laboratory Manual, 2nd. Edition, Cold Spring Habor Laboratory Press, Cold Spring Habor, N.Y., 1989; Ausubel et al., Current Protocols in Molecular Biology, Green Publishing Associates and Wiley Interscience, NY, 1989).

rCRFR1 = molecular target: T2, rCRFR1 (Rattus norvegicus, UniProt P35353); experiment: cAMP stimulation / inhibition of oCRF-stimulated cAMP production in HEK-rCRFR1 cells; format: cell-based; conditions: Table 2; 1 μM antagonist, cAMP production stimulated by 1 nM oCRF; oCRF alone = 1.00 (lower = stronger inhibition)
T2 construct: expressed in transfected cells; host or cells: HEK 293 cells, stably transfected (HEK-rCRFR1)
T2 sequence (P35353 24-415): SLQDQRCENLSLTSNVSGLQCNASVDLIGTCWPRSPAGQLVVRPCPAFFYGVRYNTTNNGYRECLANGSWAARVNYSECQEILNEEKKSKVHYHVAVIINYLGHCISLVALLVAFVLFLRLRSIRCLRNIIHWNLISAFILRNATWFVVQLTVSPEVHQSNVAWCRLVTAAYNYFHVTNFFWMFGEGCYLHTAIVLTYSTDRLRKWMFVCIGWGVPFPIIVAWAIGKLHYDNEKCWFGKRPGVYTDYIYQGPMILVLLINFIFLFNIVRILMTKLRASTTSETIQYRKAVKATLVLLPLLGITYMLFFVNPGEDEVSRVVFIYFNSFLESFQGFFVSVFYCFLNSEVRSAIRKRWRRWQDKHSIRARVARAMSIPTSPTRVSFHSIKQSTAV
Method: as §1, §2

T1 sequence (Q60748 1-431 isoform Q60748-2): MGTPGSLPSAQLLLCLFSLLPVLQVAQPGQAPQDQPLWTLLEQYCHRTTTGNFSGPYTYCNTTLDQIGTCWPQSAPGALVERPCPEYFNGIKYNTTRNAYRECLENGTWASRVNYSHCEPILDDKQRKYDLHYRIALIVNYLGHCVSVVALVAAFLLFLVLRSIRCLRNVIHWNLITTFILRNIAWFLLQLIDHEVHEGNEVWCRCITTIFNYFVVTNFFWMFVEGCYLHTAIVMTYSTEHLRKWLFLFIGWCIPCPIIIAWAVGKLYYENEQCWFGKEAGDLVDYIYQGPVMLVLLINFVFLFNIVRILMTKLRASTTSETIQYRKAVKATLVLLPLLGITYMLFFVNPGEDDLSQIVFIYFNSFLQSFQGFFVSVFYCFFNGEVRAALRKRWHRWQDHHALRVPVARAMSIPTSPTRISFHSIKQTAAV

Row | Substance | mCRFR2β relative in vitro potency (mCRFR2β [1]) | Selectivity (mCRFR2β [2]) | rCRFR1 relative in vitro potency (rCRFR1)
1 | [DLeu^11, Glu^12]rUcn(11-40) [compound 9] | 0.81 ± 0.06 | 2.29 | 0.56 ± 0.05
2 | [DPhe^11, Glu^12]rUcn(11-40) [compound 8] | 0.61 ± 0.02 | 5.04 | 0.42 ± 0.11
3 | [DPhe^11]rUcn(11-40) [compound 7] | 0.57 ± 0.06 | 4.45 | 0.18 ± 0.03^g
4 | [DPhe^12, Nle^21,38]h/rCRF(12-41) [compound 5, reference compound] | 0.87 ± 0.08^i | 1.84 | 0.33 ± 0.08^h,i
5 | [DPhe^12]oCRF(12-41) [compound 6] | 0.92 ± 0.07^k | 1.32 | 0.89 ± 0.07
